{"source": "patent US8633194B2", "about": "“Pharmaceutical composition of piperazine derivatives” (UCB Pharma, S.A., priority 2004, dated 2014)", "origin": "cited, not measured here", "molecular_target": "histamine H1-receptor (Homo sapiens, UniProt P35367)", "sequence (P35367 whole entry, species assumed)": "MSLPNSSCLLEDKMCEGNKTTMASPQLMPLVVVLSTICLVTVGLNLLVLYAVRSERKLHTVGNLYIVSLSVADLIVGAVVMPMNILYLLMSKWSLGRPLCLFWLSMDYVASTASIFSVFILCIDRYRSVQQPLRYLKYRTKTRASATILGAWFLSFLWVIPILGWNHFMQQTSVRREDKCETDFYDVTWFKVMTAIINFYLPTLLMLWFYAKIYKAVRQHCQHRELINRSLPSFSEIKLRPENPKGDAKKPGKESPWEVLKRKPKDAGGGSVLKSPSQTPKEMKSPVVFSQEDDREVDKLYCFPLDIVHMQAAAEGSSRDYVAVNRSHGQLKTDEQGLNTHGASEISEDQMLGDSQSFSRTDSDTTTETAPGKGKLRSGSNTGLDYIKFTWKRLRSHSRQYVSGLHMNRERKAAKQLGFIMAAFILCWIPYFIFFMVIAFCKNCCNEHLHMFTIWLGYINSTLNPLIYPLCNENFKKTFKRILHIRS", "details": "in vitro", "data": [{"compound": "O=C(O)COCCN1CCN(C(c2ccc(F)cc2)c2ccc(F)cc2)CC1", "note": "[Efletirizine, 2-[2-[4-[bis(4-fluorophenyl)methyl]-1-piperazinyl]ethoxy]acetic acid]", "values": [{"measurement": "Affinity for H1-receptors", "result": "high affinity"}, {"measurement": "Selectivity for H1-receptors", "result": "selectivity"}]}]}
